Experimental data taken from ChEMBL document CHEMBL1148525, “Discovery of huperzine A-tacrine hybrids as potent inhibitors of human cholinesterases targeting their midgorge recognition sites” (J Med Chem, 2006).

Columns and labels:
Acetylcholinesterase = Acetylcholinesterase (Homo sapiens, UniProt P22303)
Cholinesterase = Cholinesterase (Homo sapiens, UniProt P06276)
Sequence of Cholinesterase (P06276 whole entry): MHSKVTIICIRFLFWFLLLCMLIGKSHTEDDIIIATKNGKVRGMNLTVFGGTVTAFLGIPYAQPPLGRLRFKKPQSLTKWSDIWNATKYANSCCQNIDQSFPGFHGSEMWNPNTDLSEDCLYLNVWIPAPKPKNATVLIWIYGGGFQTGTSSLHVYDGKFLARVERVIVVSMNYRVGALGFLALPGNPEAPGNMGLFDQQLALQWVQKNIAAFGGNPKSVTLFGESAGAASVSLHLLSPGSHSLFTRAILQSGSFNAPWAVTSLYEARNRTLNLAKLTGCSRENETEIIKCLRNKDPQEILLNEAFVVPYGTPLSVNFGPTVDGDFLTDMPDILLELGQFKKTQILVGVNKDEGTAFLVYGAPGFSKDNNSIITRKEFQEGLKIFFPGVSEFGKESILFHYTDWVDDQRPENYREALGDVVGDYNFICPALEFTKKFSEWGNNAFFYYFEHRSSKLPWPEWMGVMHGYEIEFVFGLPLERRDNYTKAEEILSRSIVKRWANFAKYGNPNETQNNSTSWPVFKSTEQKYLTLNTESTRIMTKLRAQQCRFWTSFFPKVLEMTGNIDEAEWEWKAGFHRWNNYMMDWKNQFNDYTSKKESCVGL
Description: Inhibition of human BuChE

Sequence of Acetylcholinesterase (P22303 whole entry): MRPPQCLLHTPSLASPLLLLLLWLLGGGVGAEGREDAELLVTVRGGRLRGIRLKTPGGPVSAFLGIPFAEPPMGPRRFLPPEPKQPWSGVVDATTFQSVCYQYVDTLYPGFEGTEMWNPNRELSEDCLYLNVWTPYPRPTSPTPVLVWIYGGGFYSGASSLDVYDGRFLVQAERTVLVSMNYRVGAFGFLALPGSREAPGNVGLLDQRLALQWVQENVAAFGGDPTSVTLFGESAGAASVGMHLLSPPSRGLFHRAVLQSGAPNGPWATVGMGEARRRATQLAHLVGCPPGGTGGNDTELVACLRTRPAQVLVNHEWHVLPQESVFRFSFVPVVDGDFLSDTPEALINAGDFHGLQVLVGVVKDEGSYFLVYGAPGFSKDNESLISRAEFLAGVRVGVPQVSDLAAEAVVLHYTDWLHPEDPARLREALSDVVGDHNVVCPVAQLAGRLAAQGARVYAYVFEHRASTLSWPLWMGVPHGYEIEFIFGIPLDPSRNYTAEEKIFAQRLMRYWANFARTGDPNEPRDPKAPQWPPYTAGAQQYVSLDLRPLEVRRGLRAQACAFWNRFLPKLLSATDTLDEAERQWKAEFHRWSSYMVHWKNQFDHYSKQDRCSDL

Row | Compound | Ki (Acetylcholinesterase) | Ki (Cholinesterase)
1 | C/C=C1\C2C=C(C)C[C@]1(N)CC(NCCCCCCCNc1c3c(nc4ccccc14)CCCC3)C2(C)C (stereo not given in full) | 16.5 nM | 20.8 nM
2 | C/C=C1\C2C=C(C)C[C@]1(N)CC(NCCCCCCCNc1c3c(nc4ccccc14)CCCC3)C2 (stereo not given in full) | 15.7 nM | 30.8 nM
3 | C/C=C1\[C@H]2C=C(C)C[C@]1(N)c1ccc(=O)[nH]c1C2 [HUPERZINE A] |  | > 1000 nM
